The subject of data set [1] is ERG target genes in VCaP cells. The data set can be described thus: qPCR analysis of ERG-target genes in VCaP cells. Format: cell-based, human. To be noted: siRNA or drug for 48 hours. Here is the method: Total RNA was isolated from VCAP, RWPE or PrEC cells that were transfected with siRNA as indicated (Qiagen). Quantitative PCR (QPCR) was performed using SYBR Green dye on an Applied Biosystems 7300 Real Time PCR system (Applied Biosystems, Foster City, Calif.) as described (Tomlins, S. A., et al. Science (New York, N.Y. 310, 644-648 (2005)). Briefly, 1 μg of total RNA was reverse transcribed into cDNA using SuperScript 111 (Invitrogen, Carlsbad, Calif.) in the presence of random primers (Invitrogen). All reactions were performed in triplicate with SYBR Green Master Mix (Applied Biosystems) plus 25 ng of both the forward and reverse primer according to the manufacturer's recommended thermocycling conditions, and then subjected to melt curve analysis. […] The relative quantity of the target gene was completed for each sample using the ΔΔCt method by the comparing mean Ct of the gene to the average Ct of the housekeeping gene, β-Actin8. […] The primer sequences for the transcript analyzed were either previously described (Tomlins et al., 2008, supra) or are provided in Table 4.
Total RNA was isolated from VCAP, RWPE or PrEC cells that were transfected with siRNA as indicated (Qiagen). […] The relative quantity of the target gene was completed for each sample using the ΔΔCt method by the comparing mean Ct of the gene to the average Ct of the housekeeping gene, β-Actin8. […]
In general terms: Real-time PCR tracks product formation cycle by cycle.

For data set [2], the system named is VCaP cells. The data set can be described thus: γ-H2A.X immunofluorescence, VCaP cells. Format: cell-based, human. To be noted: Olaparib for 48 hours. The procedure: Cells were seeded at 25,000 cells/mL in 4-well chamber slide 24 hours prior to the addition of siRNA or drug as indicated. Merbarone (Sigma) was dissolved in DMSO and stored at 4° C. Cells were then washed once in PBS, fixed for 15 minutes in 100% methanol, washed in PBS, permeabilized for 5 minutes in PBS containing 0.2% Triton-X, washed twice in PBS, blocked for 30 minutes in PBS containing 0.5% donkey serum (Sigma, St. Louis, Mo.), held for 45 minutes in PBS containing 0.5% donkey serum and primary antibody: anti-γ-H2A.X mouse monoclonal (Millipore Cat #05-636), anti-γ-H2A.X rabbit polyclonal (Cell Signaling, Cat #9719, Danvers, Mass.), and anti-53BP1 rabbit polyclonal (Cell Signaling, Cat #4937, Danvers, Mass.) washed 3 times with PBS, held for 30 minutes in PBS containing 0.5% donkey serum and secondary antibody: Alexa Fluor 488-anti-Mouse (Invitrogen) or Alexa Fluor 594-anti-Rabbit (Invitrogen). Cells were then stained with DAPI for 5 minutes and slides were mounted 12 hours prior to analysis using Vectashield (Vector laboratories, Burlingame, Calif.). Images were taken using 100× oil lens on an Olympus Confocal microscope at the University of Michigan microscopy imaging lab.

For data set [3], the system named is RWPE cells overexpressing SLC45A3-BRAF. The data set can be described thus: Basement membrane matrix invasion assay, RWPE-SLC45A3-BRAF cells. It counts as cell-based, human. Here is the method:
(§1) For invasion assays, the prostate cell lines RWPE-1 and VCaP were transfected with siRNA or negative controls as indicated. NU7026 (Sigma) and NU1025 (Calbiochem) were dissolved in DMSO and stored at −20° C. in the dark. Forty-eight hours post-transfection/transduction, cells were seeded onto the basement membrane matrix (EC matrix, Chemicon, Temecula, Calif.) in the chamber insert with […] pores of a 24-well culture plate in serum free media. Cells were attracted to the lower chamber by the addition of complete media as a chemoattractant. After 48 hours incubation at 37° C. with 5% CO2, the non-invading cells and EC matrix were gently removed with a cotton swab. Invasive cells, which were located on the lower side of the membrane, were stained with crystal violet, air dried and photographed. To quantify the relative number of invaded cells, colorimetric assays were performed by treating the inserts with 150 μl of 10% acetic acid (v/v) and measuring absorbance of each condition at 560 nm using a spectrophotometer (GE Healthcare).

Data set [4] has as its system VCaP cells. The data set can be described thus: Basement membrane matrix invasion assay, VCaP cells. To be noted: P<0.01 for DNA-PKcs siRNA or NU7026>10 μM; P<0.05 for all PARP1 siRNA, NU1025 or Olaparib treatments. Format: cell-based, human. Here is the method: as §1
A further data set has as its system LNCaP. In words: CAM liver metastasis assay, LNCaP. Format: in vivo, chicken embryo. The following applies: LNCaP (ETS positive), eggs treated every other day with Olaparib, P=0.1. The procedure:
The CAM assay was performed as described previously (Zijlstra, A., et al., Cancer research 62, 7083-7092 (2002)). Briefly, fertilized eggs were incubated in a rotary humidified incubator at 38° C. with for 10 days. After releasing the CAM by applying mild amount of low pressure to the hole over the air sac and cutting a square 1-cm^2 window encompassing a second hole near the allantoic vein, cultured human cells that had been pre-treated with siRNA as indicated were detached by trypsinization and re-suspended in complete medium prior to implantation of 2×10^6 cells adjacent to the mesenchyme in each egg. The windows were subsequently, sealed and the eggs were returned to a stationary incubator. Cells were then treated as indicated with 40 mg/kg body weight Olaparib which was administered on day 13, 15 and 17. Day 18 embryos were sacrificed. Tumors were then excised and weighed. […] After incubation of either the metastasis or intravasation assays, the extra-embryonic tumor and CAM, as well as the embryonic liver were harvested and analyzed for the presence of tumor cells by quantitative human alu-specific PCR. […] Quantification of human cells in the extracted DNA was done as described^14. Fluorogenic TaqMan qPCR probes were applied as above, and DNA copy numbers were quantified.

“Also recorded” adds a separate entry of the source.

Experimental findings from US20120035244A1, “PARP1 TARGETED THERAPY” (THE REGENTS OF THE UNIVERSITY OF MICHIGAN, priority 2010, published 2012) are described below.

For `O=C(c1cc(Cc2n[nH]c(=O)c3ccccc23)ccc1F)N1CCN(C(=O)C2CC2)CC1` [Olaparib, 4-[3-(4-Cyclopropanecarbonylpiperazine-1-carbonyl)-4-fluorobenzyl]-2H-phthalazin-1-one], the “expression of the ERG target genes (qPCR)” value in data set [1] is “confirmed gene expression changes as predicted by the gene expression arrays; also recorded: altered expression of the ERG target genes”. Moreover, the γ-H2A.X foci result with VCaP cells [2] is recorded as “very high level of γ-H2A.X foci”. Besides, the “invasion of RWPE SLC45A3-BRAF (negative control)” value in data set [3] was “does now effect invasion”. In addition, the VCaP cell invasion result in the data set with VCaP cells [4] is recorded as “significant reduction; also recorded: blocks VCaP cell invasion”. For the same compound, in the data set with LNCaP, the “formation of liver metastases” value is on record as “blocked the formation of liver metastases”.
